Values joined by “and” are separate entries in the source; they are usually repeats but may differ in a detail not shown here. Equal entries are not always repeated. “Also recorded” adds a separate entry of the source. Where two headings read alike, the source gives them in different places.
Key:
arNOX [1] = assay: arNOX inhibition assay (superoxide-dependent reduction of ferric cytochrome c); format: biochemical, human
Protocol: Reduction of ferric cytochrome c by superoxide was employed as a standard measure of superoxide formation (Mayo, L. A. and Curnutte, J., 1990, Meth. Enzyme. 186:567-575; Butler, J. et al., 1982, J. Biol. Chem. 257:10747-10750). This is a widely accepted method when coupled to superoxide dismutase inhibition for the measurement of superoxide generation. The assay consists of 150 μl buffy coats in PBSG buffer (8.06 g NaCl, 0.2 g KCl, 0.18 g Na2HPO4, 0.13 g CaCl2, 0.1. g MgCl2, 1.35 g glucose dissolved in 1000 ml deionized water, adjusted to pH 7.4, filtered and stored at 4° C.). Rates were determined using an SLM Aminco DW-2000 spectrophotometer (Milton Roy, Rochester, N.Y., USA) in the dual wave length mode of operation with continuous measurements over 1 min every 1.5 min. After 45 min, test compounds were added and the reaction was continued for an additional 45 min. After 45 min, a millimolar extinction coefficient of 19.1 cm^−1 was used for reduced ferricytochrome c. Extracts were made of the potentially inhibitory compounds in water unless otherwise indicated.
Infusions are prepared by adding 125 mg material (for herbs or spices, dry weight) to 1 ml boiling water. The solutions are allowed to cool slowly and steep at room temperature overnight. Pure compounds (gallic acid, apigenin, derivatives of benzoic acid) are prepared as 100 mM stock solutions in water, ethanol or DMSO, depending on solubility in a particular liquid.
Tinctures are prepared by adding […] of material (fresh weight) to 1 ml ethanol and allowed to steep overnight (or from about 3-30 hours, about 6-24, or about 12-20 or about 18 hours). Insoluble and particulate material is allowed to sediment, and the soluble material is decanted. Tinctures, infusions and stock solutions of pure compounds are tested undiluted, diluted 1:10, 1:100 and 1:1000 to determine EC50 (the dose which causes 50% inhibition of arNOX activity). For tinctures or infusions, aliquots of 60 μl are added to 2.5 ml arNOX assay. For stock solutions (undiluted or diluted), aliquots of 2.5 μl are added to 2.5 ml arNOX assay. For example, addition of an undiluted 100 mM stock solution results in a final concentration of 100 μM in the assay.

arNOX [2] = system: T1, arNOX; assay: as above; format: biochemical, human; conditions: read-out: EC50 (dose which causes 50% inhibition of arNOX activity)
T1 construct: other: infusion; human saliva

arNOX [3] = conditions: Morré et al., 2008, BioFactors 32:231-235; cited from earlier work
Solubility in water = format: physicochemical
salivary arNOX = assay: Kinetics of salivary arNOX inhibition after oral administration to a volunteer; format: in vivo, human; conditions: single oral dose at time 0 h, subject
Protocol: To determine the kinetics of arNOX inhibition, capsules containing 350 to 700 mg of selected seasonings and active ingredients were administered orally to a volunteer and the arNOX activity of collected saliva was analyzed serially. arNOX activity of saliva and sera correlate closely (FIG. 14) such that salivary arNOX is reflective of the inhibition of serum arNOX.

Cc1cc(C)cc(C(=O)O)c1 [3,5-dimethylbenzoic acid]
arNOX inhibition (in words) (arNOX [1]): most inhibitory | EC50 (arNOX [2]): 200 nM

COC1=C(OC)C(=O)C(C/C=C(\C)CC/C=C(\C)CC/C=C(\C)CC/C=C(\C)CC/C=C(\C)CC/C=C(\C)CC/C=C(\C)CCC=C(C)C)=C(C)C1=O [CoQ8]
inhibition of arNOX activity of aging cells (arNOX [3]): inhibited

COC1=C(OC)C(=O)C(C/C=C(\C)CC/C=C(\C)CC/C=C(\C)CC/C=C(\C)CC/C=C(\C)CC/C=C(\C)CC/C=C(\C)CC/C=C(\C)CCC=C(C)C)=C(C)C1=O [CoQ9]
inhibition of arNOX activity of aging cells (arNOX [3]): inhibited

COC1=C(OC)C(=O)C(C/C=C(\C)CC/C=C(\C)CC/C=C(\C)CC/C=C(\C)CC/C=C(\C)CC/C=C(\C)CC/C=C(\C)CC/C=C(\C)CC/C=C(\C)CCC=C(C)C)=C(C)C1=O [CoQ10]
inhibition of arNOX activity of aging cells (arNOX [3]): inhibited

Oc1ncnc2[nH]ncc12 [allopuranol, reference compound]
arNOX inhibition (in words) (arNOX [1]): inhibited arNOX to varying degrees

O=c1cc(-c2ccc(O)cc2)oc2cc(O)cc(O)c12 [apigenin aglycone, apigenin]
inhibition of arNOX activity at 10 μM (arNOX [1]; 10 μM, supplied as DMSO solution): inhibited arNOX activity | water solubility (Solubility in water): insoluble in water | water solubility (Solubility in water; listed as apigenin): low water solubility

O=C(O)c1cc(O)c(O)c(O)c1 [gallic acid, 3,4,5-trihydroxybenzoic acid]
arNOX inhibition (in words) (arNOX [1]): active | effective final concentration (arNOX [1]): 0.14 μM and 10 ng/mL | maximum inhibition of salivary arNOX (salivary arNOX): 84% | time of maximum inhibition of salivary arNOX (salivary arNOX): 8 h

O[C@H]1[C@H](O)[C@@H](O)[C@H](O)[C@@H](O)[C@H]1O [inositol]
arNOX inhibition (in words) (arNOX [1]): inhibited arNOX to varying degrees

O=P(O)(O)O[C@H]1[C@H](OP(=O)(O)O)[C@@H](OP(=O)(O)O)[C@H](OP(=O)(O)O)[C@@H](OP(=O)(O)O)[C@H]1OP(=O)(O)O [phytic acid]
arNOX inhibition (in words) (arNOX [1]): inhibited arNOX to varying degrees

OCc1ccccc1O[C@@H]1O[C@H](CO)[C@@H](O)[C@H](O)[C@H]1O [salicin, reference compound]
arNOX inhibition (in words) (arNOX [1]): inhibited arNOX to varying degrees | type of arNOX inhibition from kinetic data (arNOX [1]; FIG. 1): competitive inhibitor

(±)-catechin
arNOX inhibition (in words) (arNOX [1]): inhibits arNOX; also recorded: potent arNOX inhibitor | effective final concentration (arNOX [1]): 100 μM and 300 ng/mL

Reference: patent publication US20120207862A1, “ORAL INHIBITORS OF AGE-RELATED NADH OXIDASE (arNOX), COMPOSITIONS AND NATURAL SOURCES” (priority 2010, published 2012)
